Laboratory results from patent US4471131A, “Novel silyl esters of N-phosphonomethylglycine” (Monsanto Company, priority 1983, dated 1984).

Experiments:
Assay in all cases: post-emergence herbicidal activity, greenhouse
Assay type in all cases: in vivo
Canada Thistle = conditions: Table II
Method in brief: (§1)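 Plants grown two to three weeks in greenhouse soil pans were atomizer-sprayed with test chemical in spray containing about 0.4% emulsifier, at the listed rates. Injury relative to unsprayed controls observed at approximately two and four weeks after treatment.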

Quackgrass = conditions: Table II
Method in brief: (§2)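 After sowing in soil-filled pans and growing under greenhouse conditions, plants at two to three weeks were sprayed post-emergence with the test compound in a formulation containing approximately 0.4% emulsifier by weight. Observations of plant injury, relative to controls, followed at about two and four weeks.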

Rice = conditions: Table III; 2 WAT; 1.1 kg/h
Method in brief: as §1

Large Crabgrass = conditions: Table III; 2 WAT; 1.1 kg/h
Method in brief: as §1

Sugar Beet = conditions: Table III; 2 WAT; 1.1 kg/h
Method in brief: as §1

Panicum Spp = conditions: Table III; 2 WAT; 1.1 kg/h
Method in brief: as §1

Common Lambsquarters = test system: Common Lambsquarters
Method in brief: as §1

Wild Buckwheat = conditions: Table III; 2 WAT; 1.1 kg/h
Method in brief: as §1

Hemp Sesbania = conditions: Table III; 2 WAT; 1.1 kg/h
Method in brief: as §1

Downy Brome = test system: Downy Brome
Method in brief: as §1

Morningglory = test system: Morningglory
Method in brief: as §1

Yellow Nutsedge = conditions: Table II
Method in brief: as §2

Johnsongrass = conditions: Table II
Method in brief: as §1

Velvetleaf = test system: Velvetleaf
Method in brief: as §1

Barnyardgrass = test system: Barnyardgrass
Method in brief: as §1

Cocklebur = test system: Cocklebur
Method in brief: as §1

Soybean = conditions: Table III; 2 WAT; 1.1 kg/h
Method in brief: as §1

Pennsylvania Smartweed = conditions: Table II
Method in brief: as §1

Compound: CC(C)(C)[Si](OP(=O)(O)CNCC(=O)OCCCl)(c1ccccc1)c1ccccc1 [Ex. 8, Glycine, N--((([(1,1-Dimethylethyl)Diphenylsilyl]oxy)Hydroxyphosphinyl)Methyl)-,2-Chloroethyl Ester Hydrate]
- Plant Response Index (A) (Canada Thistle; 2 WAT, 5.6 kg/h): 2 (50-74% inhibition)
- Plant Response Index (A) (Canada Thistle; 2 WAT, 11.2 kg/h): 2 (50-74% inhibition)
- Plant Response Index (A) (Canada Thistle; 4 WAT, 5.6 kg/h): 4 (100% inhibition)
- Plant Response Index (A) (Canada Thistle; 4 WAT, 11.2 kg/h): 2 (50-74% inhibition)
- Plant Response Index (H) (Quackgrass; 2 WAT, 5.6 kg/h): 3 (75-99% inhibition)
- Plant Response Index (H) (Quackgrass; 2 WAT, 11.2 kg/h): 2 (50-74% inhibition)
- Plant Response Index (H) (Quackgrass; 4 WAT, 5.6 kg/h): 4 (100% inhibition)
- Plant Response Index (H) (Quackgrass; 4 WAT, 11.2 kg/h): 3 (75-99% inhibition)
- Plant Response Index (O) (Rice): 0 (0-24% inhibition)
- Plant Response Index (T) (Large Crabgrass): 2 (50-74% inhibition)
- Plant Response Index (M) (Sugar Beet): 0 (0-24% inhibition)
- Plant Response Index (S) (Panicum Spp): 1 (25-49% inhibition)
- Plant Response Index (E) (Common Lambsquarters; Table II, 2 WAT, 5.6 kg/h): 2 (50-74% inhibition)
- Plant Response Index (E) (Common Lambsquarters; Table II, 2 WAT, 11.2 kg/h): 1 (25-49% inhibition)
- Plant Response Index (E) (Common Lambsquarters; Table II, 4 WAT, 5.6 kg/h): 2 (50-74% inhibition)
- Plant Response Index (E) (Common Lambsquarters; Table II, 4 WAT, 11.2 kg/h): 1 (25-49% inhibition)
- Plant Response Index (E) (Common Lambsquarters; Table III, 2 WAT, 1.1 kg/h): 3 (75-99% inhibition)
- Plant Response Index (Q) (Wild Buckwheat): 0 (0-24% inhibition)
- Plant Response Index (R) (Hemp Sesbania): 1 (25-49% inhibition)
- Plant Response Index (J) (Downy Brome; Table II, 2 WAT, 5.6 kg/h): 1 (25-49% inhibition)
- Plant Response Index (J) (Downy Brome; Table II, 2 WAT, 11.2 kg/h): 2 (50-74% inhibition)
- Plant Response Index (J) (Downy Brome; Table II, 4 WAT, 5.6 kg/h): 1 (25-49% inhibition)
- Plant Response Index (J) (Downy Brome; Table II, 4 WAT, 11.2 kg/h): 3 (75-99% inhibition)
- Plant Response Index (J) (Downy Brome; Table III, 2 WAT, 1.1 kg/h): 0 (0-24% inhibition)
- Plant Response Index (D) (Morningglory; Table II, 2 WAT, 5.6 kg/h): 2 (50-74% inhibition)
- Plant Response Index (D) (Morningglory; Table II, 2 WAT, 11.2 kg/h): 2 (50-74% inhibition)
- Plant Response Index (D) (Morningglory; Table II, 4 WAT, 5.6 kg/h): 2 (50-74% inhibition)
- Plant Response Index (D) (Morningglory; Table II, 4 WAT, 11.2 kg/h): 2 (50-74% inhibition)
- Plant Response Index (D) (Morningglory; Table III, 2 WAT, 1.1 kg/h): 0 (0-24% inhibition)
- Plant Response Index (G) (Yellow Nutsedge; 2 WAT, 5.6 kg/h): 2 (50-74% inhibition)
- Plant Response Index (G) (Yellow Nutsedge; 2 WAT, 11.2 kg/h): 2 (50-74% inhibition)
- Plant Response Index (G) (Yellow Nutsedge; 4 WAT, 5.6 kg/h): 2 (50-74% inhibition)
- Plant Response Index (G) (Yellow Nutsedge; 4 WAT, 11.2 kg/h): 3 (75-99% inhibition)
- Plant Response Index (I) (Johnsongrass; 2 WAT, 5.6 kg/h): 0 (0-24% inhibition)
- Plant Response Index (I) (Johnsongrass; 2 WAT, 11.2 kg/h): 1 (25-49% inhibition)
- Plant Response Index (I) (Johnsongrass; 4 WAT, 5.6 kg/h): 2 (50-74% inhibition)
- Plant Response Index (I) (Johnsongrass; 4 WAT, 11.2 kg/h): 2 (50-74% inhibition)
- Plant Response Index (C) (Velvetleaf; Table II, 2 WAT, 5.6 kg/h): 1 (25-49% inhibition)
- Plant Response Index (C) (Velvetleaf; Table II, 2 WAT, 11.2 kg/h): 3 (75-99% inhibition)
- Plant Response Index (C) (Velvetleaf; Table II, 4 WAT, 5.6 kg/h): 1 (25-49% inhibition)
- Plant Response Index (C) (Velvetleaf; Table II, 4 WAT, 11.2 kg/h): 3 (75-99% inhibition)
- Plant Response Index (C) (Velvetleaf; Table III, 2 WAT, 1.1 kg/h): 0 (0-24% inhibition)
- Plant Response Index (K) (Barnyardgrass; Table II, 2 WAT, 5.6 kg/h): 3 (75-99% inhibition)
- Plant Response Index (K) (Barnyardgrass; Table II, 2 WAT, 11.2 kg/h): 2 (50-74% inhibition)
- Plant Response Index (K) (Barnyardgrass; Table II, 4 WAT, 5.6 kg/h): 4 (100% inhibition)
- Plant Response Index (K) (Barnyardgrass; Table II, 4 WAT, 11.2 kg/h): 3 (75-99% inhibition)
- Plant Response Index (K) (Barnyardgrass; Table III, 2 WAT, 1.1 kg/h): 1 (25-49% inhibition)
- Plant Response Index (B) (Cocklebur; Table II, 2 WAT, 5.6 kg/h): 2 (50-74% inhibition)
- Plant Response Index (B) (Cocklebur; Table II, 2 WAT, 11.2 kg/h): 3 (75-99% inhibition)
- Plant Response Index (B) (Cocklebur; Table II, 4 WAT, 5.6 kg/h): 3 (75-99% inhibition)
- Plant Response Index (B) (Cocklebur; Table II, 4 WAT, 11.2 kg/h): 3 (75-99% inhibition)
- Plant Response Index (B) (Cocklebur; Table III, 2 WAT, 1.1 kg/h): 0 (0-24% inhibition)
- Plant Response Index (L) (Soybean): 0 (0-24% inhibition)
- Plant Response Index (F) (Pennsylvania Smartweed; 2 WAT, 5.6 kg/h): 3 (75-99% inhibition)
- Plant Response Index (F) (Pennsylvania Smartweed; 2 WAT, 11.2 kg/h): 2 (50-74% inhibition)
- Plant Response Index (F) (Pennsylvania Smartweed; 4 WAT, 5.6 kg/h): 4 (100% inhibition)
- Plant Response Index (F) (Pennsylvania Smartweed; 4 WAT, 11.2 kg/h): 4 (100% inhibition)
